{"source": "paper PMC11093748", "about": "“De novo identification of CD4^+ T cell epitopes” (Nature Methods, 2024)", "key": {"GSE.20D11 TCR [1]": {"test_system": "GSE.20D11 TCR", "assay": "HLA-DQ8 SABR-II (+ HLA-A2.1 SABR) library screen, enrichment score", "format": "cell-based, human", "settings": "combined class I and II library", "excerpt": "To test whether HLA-DQ8 SABR-II could be used for antigen discovery, we curated a list of insulin B, insulin C and HIP epitopes published by Wiles et al.[58] and cloned them into the DQ8 SABR-II backbone using the same pooled cloning strategy as the I-Ag7 SABR-II library (Supplementary Table 2). Furthermore, we combined SABR-I (the HLA-A*0201 library reported in our previous work[27]) and SABR-II libraries at a cellular level and screened against the GSE.20D11 TCR.\nTo generate the I-Ag7 restricted SABR library, we combined all Immune Epitope Database epitopes with a published immunopeptidome generated by Wan et al.[51]. Sequences were filtered remove all post-translational modifications except deamidation and HIPs and trimmed between 9–25 amino acid lengths. For the insulin C HIP and HLA-DQ8 library, non-contiguous epitopes from Wiles et al.[66] as well as all Immune Epitope Database epitopes were combined to generate the epitope list. Epitope sequences were back-translated using the backtranslate_fast.py script.\n(§1) For SABR library screens, 3 × 10^6 NFAT–GFP Jurkat cells expressing the SABR library were labeled with CellTrace Violet (BioLegend) according to the manufacturer’s protocol before incubation with 3 × 10^6 Jurkat cells expressing the TCR of interest. These mixtures were incubated in a six-well plate for 16–20 h. Cells were stained with anti-CD69-APC-Cy7 where indicated (BioLegend) and the top 1–2% of GFP^+CD69^+ cells were sorted for genomic DNA extraction, indexing and sequencing (see below). Multiplexed assays were scaled on a per-TCR basis (for example 3 × 10^6 for each of three TCRs against 9 × 10^6 library cells). For single SABR assays, unless otherwise defined, 5 × 10^5 SABR expressing NFAT–GFP Jurkat cells (or 5KC cells) were labeled with CellTrace Violet (BioLegend) according to the manufacturer’s protocol before incubation with 5 × 10^5 TCR-expressing Jurkat cells (or 5KC cells) in a round-bottom 96-well plate for 16–20 h. Cells were stained with anti-CD69-APC-Cy7 when indicated and acquired on the Attune NxT flow cytometer (Thermo Fisher Scientific). All flow analysis was performed using FlowJo (BD). For Daudi cell co-culture, 1 × 10^6 Jurkat cells expressing the TCR of interest were incubated with 1 × 10^6 Daudi cells expressing a SABR of interest for 3 days. On day 3, cells were labeled with anti-RT1B-PE and anti-Fas-APC-Cy7 before being acquired on the Attune NxT flow cytometer.\nGenomic DNA was extracted from sorted cells immediately after sorting, using the PureLink genomic DNA extraction kit (Life Technologies). The integrated SABR vectors were amplified with KOD polymerase (Millipore) and two rounds of amplification. In the first round, IDT-UD-SABR-C2-F and IDT-UD-SABR-C2-R primers were used to amplify the epitope. In the second round, UDI0001-R and UDI0001-F primers (representative of index 1) were used to add Illumina unique dual indexes (UDIs) to the amplicons. A different UDI was used for each sample. The reactions were pooled and purified with the NucleoSpin gel and PCR purification kit (Takara). The purified PCR product was checked before sequencing using 2% agarose gel and subjected to sequencing on a HiSeq4000 (Fulgent Genetics). Unaligned reads generated by the sequencer were stored in FASTQ files. FASTQ files were concatenated to generate one file for read1 and read2 each. The sequences were demultiplexed into individual indexes using demultiplex_dual.py. Epitopes were extracted and scored using epitope_extract_fastq_v1.1.py and merge_counts_split_v2.1.py. The ES was calculated using Microsoft Excel (Microsoft) workbooks."}, "TCR37": {"test_system": "TCR37", "assay": "mIL-2 ELISA, TCR-expressing 5KC cells with SABR NFAT-GFP Jurkat cells", "format": "cell-based, mouse", "settings": "murine IL-2 ELISA, 24 hr co-incubation"}, "GSE.20D11 TCR [2]": {"test_system": "GSE.20D11 TCR", "assay": "Single SABR-II co-incubation, NFAT-GFP Jurkat (HLA-DQ8)", "format": "cell-based, human", "settings": "HLA-DQ8 SABR-II", "excerpt": "(§2) We have previously described SABRs, which are chimeric receptors containing an extracellular pMHC complex attached to an intracellular CD28-CD3ζ signaling domain. […] We sought to expand this platform to allow antigen discovery for MHC/HLA-II with seamless integration with class I alleles. Here, we created SABRs to present epitopes in MHC-II alleles, by covalently linking the epitope to the β-chain of MHC-II that is attached to the CD28-CD3ζ signaling domains downstream, along with a 2A peptide-linked MHC-II α-chain (Fig. 1a,b). To test whether SABR-IIs could present epitopes to TCRs and induce a signal, we expressed them using lentiviral vectors in NFAT–GFP Jurkat cells, which express green fluorescent protein (GFP) upon NFAT activation and translocation downstream of CD3ζ activation (a kind gift from Y. Chen and A. Weiss). We constructed murine SABR-IIs presenting epitopes in I-Ab, I-Ad and I-Ag7 (Ova, […][41]; ATEG, […][42]; and 2.5mimo, […][43], respectively). We co-incubated the SABR-II-expressing NFAT–GFP Jurkat cells with a separate population of Jurkat cells expressing either the BDC2.5 TCR (recognizes I-Ag7-2.5mimo), OT-II TCR (recognizes I-Ab-Ova), 5-4-E8 TCR (recognizes I-Ad-ATEG) or no TCR. […] The signal from the NFAT–GFP reporter offered minimal background in absence of a cognate TCR and correlated with surface SABR expression in the presence of a cognate TCR (Extended Data Fig. 1c–e). […] We confirmed the ability of the DQ8-InsB9:23 SABR-II to present the epitope to two previously described, T1D patient-derived TCRs GSE.6H9 and GSE.20D11 (ref. [46]).\nas §1"}, "GSE.6H9 TCR": {"test_system": "GSE.6H9 TCR", "assay": "Single SABR-II co-incubation, NFAT-GFP Jurkat (HLA-DQ8)", "format": "cell-based, human", "settings": "HLA-DQ8 SABR-II", "excerpt": "as §2, §1"}}}
{"sequence": "SHLVEALYLVCGERG", "values": [{"measurement": "enrichment in screen (in words)", "setting": "GSE.20D11 TCR [1]", "value": "enriched at a high confidence level"}, {"measurement": "IL-2 secretion", "setting": "TCR37; technical replicate 1", "value": 37.8351}, {"measurement": "IL-2 secretion", "setting": "TCR37; technical replicate 2", "value": 38.2928}, {"measurement": "frequency of GFP+CD69+ cells (in words)", "setting": "GSE.20D11 TCR [2]", "value": "high frequency of GFP^+CD69^+ cells"}, {"measurement": "frequency of GFP+CD69+ cells (in words)", "setting": "GSE.6H9 TCR", "value": "high frequency of GFP^+CD69^+ cells"}]}
